Results published in patent US9452986B2, “6-heteroaryloxy- or 6-aryloxy-quinoline-2-carboxamides and method of use” (AbbVie Inc., priority 2014, dated 2016).
pIC50: −log10 of the molar value. Like-named read-outs stand apart in the source and are kept apart here.

Biological target: recombinant human Nav1.7 (Homo sapiens (Human), UniProt Q15858)
Test: FRET-based membrane potential assay, recombinant human sodium channel Nav1.7
Assay type: cell-based
Details: read-out: FRET-Membrane Potential Nav1.7 IC50
Procedure, shortened: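 Channel activation used veratridine at its EC80, set by a dilution curve each experiment, together with Leiurus scorpion venom, added 3 min after compound. Membrane-potential ratio signals from FLIPR Tetra in HEPES-buffered HBSS were fitted to a four-parameter Hill equation for percent inhibition and IC50.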

[1] = HEK293 cells stably expressing recombinant human Nav1.7, veratridine + scorpion venom depolarization

Sequence of recombinant human Nav1.7 (Q15858 whole entry): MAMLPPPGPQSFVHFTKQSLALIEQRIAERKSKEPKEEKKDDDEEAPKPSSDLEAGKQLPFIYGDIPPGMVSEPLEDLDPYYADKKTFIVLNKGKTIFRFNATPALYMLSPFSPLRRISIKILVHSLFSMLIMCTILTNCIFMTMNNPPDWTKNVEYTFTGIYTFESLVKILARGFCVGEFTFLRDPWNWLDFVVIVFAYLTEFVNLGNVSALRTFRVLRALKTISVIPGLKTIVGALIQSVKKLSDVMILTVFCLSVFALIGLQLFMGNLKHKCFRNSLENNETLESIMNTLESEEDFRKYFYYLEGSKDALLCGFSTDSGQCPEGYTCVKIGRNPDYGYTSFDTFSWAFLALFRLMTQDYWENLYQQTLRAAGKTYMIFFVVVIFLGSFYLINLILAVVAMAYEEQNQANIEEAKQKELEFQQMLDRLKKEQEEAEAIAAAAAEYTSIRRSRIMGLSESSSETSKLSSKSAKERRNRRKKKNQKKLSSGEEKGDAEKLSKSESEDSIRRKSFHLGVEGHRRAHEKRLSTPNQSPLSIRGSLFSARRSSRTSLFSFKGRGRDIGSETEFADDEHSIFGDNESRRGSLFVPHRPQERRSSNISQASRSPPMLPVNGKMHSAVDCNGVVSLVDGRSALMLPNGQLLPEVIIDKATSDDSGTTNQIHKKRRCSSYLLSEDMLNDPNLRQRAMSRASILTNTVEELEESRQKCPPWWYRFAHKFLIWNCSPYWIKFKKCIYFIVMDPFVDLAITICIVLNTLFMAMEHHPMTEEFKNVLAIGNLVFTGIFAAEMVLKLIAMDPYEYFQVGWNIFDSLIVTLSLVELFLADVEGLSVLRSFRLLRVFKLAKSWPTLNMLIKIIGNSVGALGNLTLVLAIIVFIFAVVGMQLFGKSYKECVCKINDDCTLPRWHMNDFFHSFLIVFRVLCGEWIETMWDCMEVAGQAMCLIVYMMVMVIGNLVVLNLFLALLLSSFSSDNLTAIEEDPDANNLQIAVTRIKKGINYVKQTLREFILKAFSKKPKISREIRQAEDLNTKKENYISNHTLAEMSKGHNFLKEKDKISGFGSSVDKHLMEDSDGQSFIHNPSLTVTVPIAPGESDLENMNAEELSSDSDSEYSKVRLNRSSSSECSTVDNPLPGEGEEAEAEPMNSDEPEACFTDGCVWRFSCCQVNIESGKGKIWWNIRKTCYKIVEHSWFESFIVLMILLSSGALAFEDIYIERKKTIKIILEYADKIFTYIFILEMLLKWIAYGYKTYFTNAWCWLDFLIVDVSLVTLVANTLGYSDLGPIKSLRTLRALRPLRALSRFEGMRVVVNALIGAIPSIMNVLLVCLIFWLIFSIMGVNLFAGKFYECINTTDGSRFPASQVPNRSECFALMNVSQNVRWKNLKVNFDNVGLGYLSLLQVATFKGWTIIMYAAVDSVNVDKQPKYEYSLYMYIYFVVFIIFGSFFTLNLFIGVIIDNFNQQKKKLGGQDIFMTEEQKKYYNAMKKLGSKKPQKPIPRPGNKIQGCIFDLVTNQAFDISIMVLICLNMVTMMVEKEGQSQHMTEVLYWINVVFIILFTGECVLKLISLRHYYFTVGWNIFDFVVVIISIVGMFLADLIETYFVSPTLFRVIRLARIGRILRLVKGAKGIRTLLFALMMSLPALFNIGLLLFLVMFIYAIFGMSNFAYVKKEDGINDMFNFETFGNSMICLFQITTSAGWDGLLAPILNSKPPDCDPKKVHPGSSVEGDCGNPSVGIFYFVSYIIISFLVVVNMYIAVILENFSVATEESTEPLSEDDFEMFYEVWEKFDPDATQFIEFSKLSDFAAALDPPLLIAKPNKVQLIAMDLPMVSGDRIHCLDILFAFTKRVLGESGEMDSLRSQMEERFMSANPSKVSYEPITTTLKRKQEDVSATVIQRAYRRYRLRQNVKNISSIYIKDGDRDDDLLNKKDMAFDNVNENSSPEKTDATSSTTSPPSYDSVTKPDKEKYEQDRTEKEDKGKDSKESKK

| Structure (SMILES) | pIC50 | pIC50 [1] |
| --- | --- | --- |
| O=C(c1ccc2cc(Oc3ccc(C(F)(F)F)cn3)ccc2n1)N1CCN(CCC(F)(F)F)CC1 [Example 311, (6-{[5-(trifluoromethyl)pyridin-2-yl]oxy}quinolin-2-yl)[4-(3,3,3-trifluoropropyl)piperazin-1-yl]methanone] | 5.51 |  |
| CS(=O)(=O)C1CN(C(=O)c2ccc3cc(Oc4ccc(C(F)(F)F)nc4)ccc3n2)C1 [Example 534, [3-(methylsulfonyl)azetidin-1-yl](6-{[6-(trifluoromethyl)pyridin-3-yl]oxy}quinolin-2-yl)methanone] |  | 5.71 |
| O=C(c1ccc2cc(Oc3ccc(C(F)(F)F)cn3)ccc2n1)N1CCN2C(=O)OC[C@H]2C1 [Example 333, (8aR)-7-[(6-{[5-(trifluoromethyl)pyridin-2-yl]oxy}quinolin-2-yl)carbonyl]hexahydro[1,3]oxazolo[3,4-a]pyrazin-3-one] |  | < 4.70 |
| C[C@@H]1CN2C[C@@H](F)C[C@@H]2CN1C(=O)c1ccc2cc(Oc3ccc(C(F)(F)F)cn3)ccc2n1 [Example 357, [(3R,7S,8aR)-7-fluoro-3-methylhexahydropyrrolo[1,2-a]pyrazin-2(1H)-yl](6-{[5-(trifluoromethyl)pyridin-2-yl]oxy}quinolin-2-yl)methanone] |  | 5.57 |
| O=C(c1ccc2cc(Oc3ccc(C(F)(F)F)cn3)ccc2n1)N1CCC[C@@]12CC[C@H](O)C2 [Example 313, [(5S,7S)-7-hydroxy-1-azaspiro[4.4]non-1-yl](6-{[5-(trifluoromethyl)pyridin-2-yl]oxy}quinolin-2-yl)methanone] |  | 4.85 |
| N#Cc1ccc(Oc2ccc3nc(C(=O)NCc4cccnc4)ccc3c2)cc1 [Example 89, 6-(4-cyanophenoxy)-N-(pyridin-3-ylmethyl)quinoline-2-carboxamide] |  | 5.82 |
| CNC(=O)[C@@H]1CCCN1C(=O)c1ccc2cc(Oc3ccc(C(F)(F)F)cn3)ccc2n1 [Example 239, N-methyl-1-[(6-{[5-(trifluoromethyl)pyridin-2-yl]oxy}quinolin-2-yl)carbonyl]-L-prolinamide] |  | < 4.70 |
| O=C(c1ccc2cc(Oc3ccc(C(F)(F)F)cn3)ccc2n1)N1C[C@@H]2CCN[C@@H]2C1 [Example 280, (3 aS,6aS)-hexahydropyrrolo[3,4-b]pyrrol-5(1H)-yl(6-{[5-(trifluoromethyl)pyridin-2-yl]oxy}quinolin-2-yl)methanone] |  | 6.22 |
| NCCNC(=O)c1ccc2cc(Oc3ccc(C(F)(F)F)cn3)ccc2n1 [Example 338, N-(2-aminoethyl)-6-{[5-(trifluoromethyl)pyridin-2-yl]oxy}quinoline-2-carboxamide] |  | 6.01 |
| CC(C)[C@H]1CN(C(=O)c2ccc3cc(Oc4ccc(C(F)(F)F)cn4)ccc3n2)CCN1 [Example 274, [(3S)-3-isopropylpiperazin-1-yl](6-{[5-(trifluoromethyl)pyridin-2-yl]oxy}quinolin-2-yl)methanone] |  | 6.52 |
| O=C(c1ccc2cc(Oc3ccc(C(F)(F)F)cn3)ccc2n1)N1CCN(C2CCCCC2)CC1 [Example 291, (4-cyclohexylpiperazin-1-yl)(6-{[5-(trifluoromethyl)pyridin-2-yl]oxy}quinolin-2-yl)methanone] |  | 4.86 |
| CN(CCS(C)(=O)=O)C(=O)c1ccc2cc(Oc3ccc(C(F)(F)F)cn3)ccc2n1 [Example 611, N-methyl-N-[2-(methylsulfonyl)ethyl]-6-{[5-(trifluoromethyl)pyridin-2-yl]oxy}quinoline-2-carboxamide] | 5.30 |  |
| CC(CO)NC(=O)c1ccc2cc(Oc3ccc(C#N)cc3)ccc2n1 (centres unmarked) [Example 127, 6-(4-cyanophenoxy)-N-(1-hydroxypropan-2-yl)quinoline-2-carboxamide] | 5.39 |  |
| N#Cc1ccc(Oc2ccc3nc(C(=O)N[C@H]4CC[C@H](O)CC4)ccc3c2)cc1 [Example 125, 6-(4-cyanophenoxy)-N-(trans-4-hydroxycyclohexyl)quinoline-2-carboxamide] |  | 5.46 |
